Reference: patent US20260306502A1, “MITOCHONDRIAL UNCOUPLERS FOR TREATMENT OF METABOLIC DISEASES AND CANCER” (Mito Biopharma, LLC, priority 2022, published 2026)
Read-outs that look alike come from different tables or passages of the source. Each block holds one compound with its values, some of them ahead of it.

How the values were obtained:
[1] = PO pharmacokinetic study, oral exposure (Example B3); format: in vivo; details: for AUC(0-t) at 24 h / AUC at 24 h: blood, po; for Fold increase over Compound 27 in U.S. Pat. No. 10,227,315: ratio of oral AUC 24 hr; for AUC at 24 h: 10 mg/kg gavage
Description: The blood concentration of the compound was then determined at 0 (pre-dosing), 5 min, 15 min, 30 min, 1 hr, 2 hr, 4 hr, 8 hr, 24 hr time points by LC-MS/MS analysis (See Tables 1 and 2, vide supra).

animal models = details: mixed with food, cited from earlier work; for dose required to achieve efficacy, equivalent: equivalent of ppm in diet
C2C12 cells = assay: Mitochondrial uncoupling activity by oxygen consumption rate (OCR) assay, Seahorse, in presence of oligomycin; format: cell-based, mouse; details: for minimal effective concentration: Mus musculus, C2C12, in the presence of oligomycin 2.5 μM, read-out: COCR-min: minimal concentration increasing OCR in the presence of oligomycin
In short: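 Mouse C2C12 myoblasts grown in 10% FBS medium had OCR measured on Seahorse XF96/XF24 sequentially: basal, after 2.5 μM oligomycin (final), then after compound at varying concentrations. Rotenone/antimycin A confirmed mitochondrial origin. COCR-min is the minimal compound concentration inducing OCR in the presence of oligomycin.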

[2] = tested on: high-fat diet (HFD)-induced diabetic mouse model; assay: Efficacy in high-fat diet (HFD)-induced diabetic/fatty liver mouse model; format: in vivo; details: Mus musculus; HFD model, oral daily gavage; read-out: Efficacious dosage to reduce blood glucose in mouse models, oral daily gavage
Description: For HFD induced diabetic mouse model, C57Bl6 mice (male, n=6) were induced to obese and diabetic conditions by feeding high-fat diet (HFD, 60% fat calories, Research Diet, Inc. New Brunswick, NJ) for 3-4 months. […] During the 3-week period, the mice continued feeding HFD. […] The blood glucose levels were measured after an overnight fast, plasma insulin levels were tested after 5-6 hours fast, and the glycated HbA1c levels were determined in whole blood samples.
FIG. 15C and FIG. 15D show liver sections from mice fed HFD following 3 weeks of treatment with Compounds 25 and 64, respectively (P.O. dosing of 5 mg/kg, by daily gavage).
Experiments were similarly performed with other compounds, in either high-fat diet induced diabetes and fatty liver models, or in db/db mouse model, or in both, by daily oral gavage administration with low dosages.

[3] = tested on: LX-2 cells (human hepatic stellate cells); assay: Inhibition of TGFβ-induced hepatic stellate cell differentiation into myofibroblast-like cells; format: cell-based; details: TGFβ 10 ng/ml; for minimal effective concentration: Homo sapiens, LX-2, hepatic stellate cell differentiation to myofibroblast-like cells, 24 hours, read-out: Minimal inhibitory concentration; for inhibition of TGFβ-induced hepatic stellate cell differentiation: in words
Description: Liver fibrosis is one hallmark of NASH. […] This process could be modeled in vitro using the hepatic stellate differentiation experiment. The human hepatic stellate LX-2 cells were cultured within DMEM (Dulbecco's Modified Eagle Media, pH 7.4) supplied with 2% fetal bovine serum, 4.5 g/l glucose and 2 mM glutamine to 100 percent confluence. […] Cellular morphology was then examined under a microscope. As shown in FIG. 16 to FIG. 17, hepatic stellate cells could be induced by TGF-beta to differentiate into myofibroblast-like cells.

[4] = Rat pharmacokinetics study, oral gavage (Example B8); format: in vivo
Description: Pharmacokinetics of the testing compounds was determined in male SD rats, n=3. Briefly, each compound was prepared in 0.5% CMC-Na and 1% Tween in water to yield a homogeneous suspension at 1 mg/ml, and then administrated to 10 mg/kg via oral gavage. The animals were fasted overnight before dosing and fed for 4 hour post dosing with free access to water for all time. Blood samples were collected at pre-dose, 0.083, 0.25, 0.5, 1, 2, 4, 8 and 24 hours, into K2EDTA-coated tube via tail vein for serial sampling and cardiac puncture for terminal sampling. […] Plasma samples were stored at approximately −80° C. until analysis. The compound in the plasma samples were then extracted and concentrations determined by LC-MS/MS.

[5] = Metabolic stability assay in rat liver microsomes; format: in vitro ADME; details: for half-life at 1 µM: rat, liver microsomes
Description: The metabolic stability of the compounds was evaluated in incubation with rat liver microsomes.

C2C12 = assay: Cell growth inhibition assay (SRB), C2C12; format: cell-based; details: Mus musculus, C2C12, 48 h
Description: Cell growth inhibition assays were performed using a protocol standardized by National Cancer Institute (NCI) for evaluating anti-cancer drugs. Various mammalian cell lines were used for the assays. Briefly, the cells were inoculated into 96 well microtiter plates. After cell inoculation, the microtiter plates were incubated for cell growth for 24 h prior to the addition of compounds. After 24 h, two plates of each cell line were fixed in situ with TCA, to represent a measurement of the cell population for each cell line at the time of compound addition (Tz). Test compounds were solubilized in dimethyl sulfoxide. At the time of test compound addition, five 10-fold or ½ log serial dilutions were made to provide a total of five test compound concentrations plus control. Aliquots of 100 μl of these different test compound dilutions were added to the appropriate microtiter wells already containing 100 μl of the medium, resulting in the required final test compound concentrations. […] The bound stain was subsequently solubilized with 10 mM trizma base, and the absorbance was read on an automated plate reader at a wavelength of 515 nm. Using the seven absorbance measurements [time zero, (Tz), control growth, (C), and test growth in the presence of a compound at the five concentration levels (Ti)], the percentage growth was calculated at each of the test compound concentrations levels.

[6] = tested on: cultured mammalian cells, the NIH-3T3 cells, C2C12 cells, and other mammalian cell lines; assay: Mitochondrial membrane potential (MMP) assay, TMRE (or DilC1(5)) staining, related to OCR induction; format: cell-based; details: ratio of concentration leading to 10% MMP retention (90% MMP loss, TMRE) to minimal concentration leading to OCR increase
Description: Mitochondrial membrane potential assay was performed using the standard TMRE (tetramethylrhodamine ethyl ester) staining method with cultured mammalian cells, the NIH-3T3 cells, C2C12 cells, and other mammalian cell lines. Cells were seeded in 6-well plates and cultured in DMEM medium supplemented with 10% fetal bovine serum and 2 mM glutamine. Cells were allowed to grow to the logarithmic growth phase prior to experiments. The cells were treated with each individual compound at various concentrations for two hours, followed by staining with TMRE at a final concentration of 100 nM for 15 minutes. The cells were then washed once with PBS, and examined under fluorescence microscopy. Cells treated with various concentrations of niclosamide ethanolamine were used as a positive control.
In some examples, mitochondrial membrane potential was measured with DilC1(5) staining. Briefly, DilC1(5) was added to the cells to 50 nM final concentration and the cells were incubated at 37° C., 5% CO2, for 15 to 30 minutes. Cells were washed once by adding 2 mL of warm phosphate-buffered saline (PBS). Mitochondrial staining was determined by fluorescence microscopy with 633 nm excitation using standard filters for far-red emission.
Using the ratio between C10% TMRE (the concentration at which 10% MMP remains, i.e. 90% MMP is lost) and Cmin-OCR (the concentration at which minimal OCR induction is observed), we categorized the MMP-retaining uncouplers into two groups.

HepG2 = assay: Cell growth inhibition assay (SRB), HepG2; format: cell-based; details: Homo sapiens, HepG2, 48 h
Description: Cell growth inhibition assays were performed using a protocol standardized by National Cancer Institute (NCI) for evaluating anti-cancer drugs. Various mammalian cell lines were used for the assays. Briefly, the cells were inoculated into 96 well microtiter plates. After cell inoculation, the microtiter plates were incubated for cell growth for 24 h prior to the addition of compounds. After 24 h, two plates of each cell line were fixed in situ with TCA, to represent a measurement of the cell population for each cell line at the time of compound addition (Tz). Test compounds were solubilized in dimethyl sulfoxide. At the time of test compound addition, five 10-fold or ½ log serial dilutions were made to provide a total of five test compound concentrations plus control. Aliquots of 100 μl of these different test compound dilutions were added to the appropriate microtiter wells already containing 100 μl of the medium, resulting in the required final test compound concentrations. Following test compound addition, the plates were incubated for an additional 48 h. The assay was terminated by the addition of cold TCA. Cells were fixed in situ with 50 μl of cold 50% (w/v) TCA (final concentration, 10% TCA), washed five times with tap water and air-dried. Sulforhodamine B (SRB) solution (100 μl) at 0.4% (w/v) in 1% acetic acid was added to each well, and plates were incubated for 10 minutes at room temperature. After staining, the unbound dye was removed by washing five times with 1% acetic acid and the plates were air-dried. The bound stain was subsequently solubilized with 10 mM trizma base, and the absorbance was read on an automated plate reader at a wavelength of 515 nm. Using the seven absorbance measurements [time zero, (Tz), control growth, (C), and test growth in the presence of a compound at the five concentration levels (Ti)], the percentage growth was calculated at each of the test compound concentrations levels.

[7] = in words, cited from earlier work

AUC(0-t) at 24 h ([1]; 10 mg/kg): ~3000 ng·h/mL | Fold increase over Compound 27 in U.S. Pat. No. 10,227,315 [1]: 1.0
Compound: CCc1cc(Cl)cc(C(=O)Nc2nc3ccc(C(F)(F)F)cc3s2)c1O [Compound 27 in U.S. Pat. No. 10,227,315, reference compound]
dose required to achieve efficacy, equivalent (animal models): 60 to 75 mg/kg/day | dose required to achieve efficacy, in diet (animal models): 600-750 ppm

AUC at 24 h [1]: 10000 to 30000 ng·h/mL
Compound: O=C(Nc1nc2ccc(C(F)(F)F)cc2s1)c1cc(Cl)cc(CN2CCCC2)c1O [Compound 23, 5-chloro-2-hydroxy-3-(pyrrolidin-1-ylmethyl)-N-(6-(trifluoromethyl)benzo[d]thiazol-2-yl)benzamide]
minimal effective concentration (C2C12 cells): < 5 µM | minimal effective dose [2]: 10 mg/kg | minimal effective concentration [3]: 5 µM | inhibition of TGFβ-induced hepatic stellate cell differentiation [3]: able to directly inhibit hepatic stellate cell (HSC) activation in vitro

Rat Oral PK (in vivo) half-life (T1/2, hour) ([4]; 10 mg/kg oral gavage): 66.9 h | half-life ([4]; plasma, 10 mg/kg, oral): 66.9 h | Metabolic stability half-life (T1/2, min, rat liver microsome) ([5]; 1 μM compound, 0.5 mg/ml microsomal protein, 37° C., 1 µM): 2,132 min | half-life at 1 µM ([5]; 1 μM compound, 0.5 mg/ml microsomal protein, 37° C., read-out: Metabolic stability half-life (T1/2, min, rat liver microsome)): 35.5 h | half-life at 1 µM ([5]; rat liver microsomes, read-out: rat microsome metabolic stability, half-life): 35.5 h
Compound: CN(C)CCc1cc(Cl)cc(C(=O)Nc2nc3ccc(C(F)(F)F)cc3s2)c1O [Compound 2 of U.S. Pat. No. 10,227,315]

AUC at 24 h [1]: 10000 to 30000 ng·h/mL
Compound: Cl.O=C(Nc1nc2ccc(C(F)(F)F)cc2s1)c1cc(Cl)cc(CN2CCOCC2)c1O [Compound 16, 5-chloro-2-hydroxy-3-(morpholinomethyl)-N-(6-(trifluoromethyl)benzo[d]thiazol-2-yl)benzamide]
minimal effective concentration (C2C12 cells): < 5 µM | effect on oxygen consumption rate (OCR) (C2C12 cells; in words): increase OCR in the presence of oligomycin | minimal effective dose [2]: 1 mg/kg | minimal effective concentration [3]: 5 µM | inhibition of TGFβ-induced hepatic stellate cell differentiation [3]: able to directly inhibit hepatic stellate cell (HSC) activation in vitro

AUC at 24 h [1]: 30000 to 60000 ng·h/mL
Compound: COCCOCc1cc(C(F)(F)F)cc2sc(NC(=O)c3cc(Cl)cc(C)c3O)nc12 [Compound 13, 5-chloro-2-hydroxy-N-(4-((2-methoxyethoxy)methyl)-6-(trifluoromethyl)benzo[d]thiazol-2-yl)-3-methylbenzamide]
minimal effective concentration (C2C12 cells): < 5 µM | GI50 (C2C12): 5 to 20 µM | C10%TMRE/Cmin-OCR [6]: ~13

GI50 (HepG2): < 5 µM
Compound: O=C(Nc1nc2ccc(C(F)(F)F)cc2s1)c1cc(Cl)cc(CN2CCC(C(F)(F)F)CC2)c1O [Compound 57, 5-chloro-2-hydroxy-N-(6-(trifluoromethyl)benzo[d]thiazol-2-yl)-3-((4-(trifluoromethyl)piperidin-1-yl)methyl)benzamide]
minimal effective concentration (C2C12 cells): < 5 µM

AUC(0-t) at 24 h ([1]; 10 mg/kg): 4410 ng·h/mL | Fold increase over Compound 27 in U.S. Pat. No. 10,227,315 [1]: 1.5
Compound: Cc1cc(Cl)cc(C(=O)Nc2nc3ccc(C(F)(F)F)cc3s2)c1O [Compound 28 in U.S. Pat. No. 10,227,315, reference compound]
dose required to achieve efficacy, equivalent (animal models): 60 to 75 mg/kg/day | dose required to achieve efficacy, in diet (animal models): 600-750 ppm

AUC(0-t) at 24 h ([1]; 50 mg/kg): ~1800 ng·h/mL
Compound: O=C(Nc1ccc([N+](=O)[O-])cc1Cl)c1cc(Cl)ccc1O [niclosamide ethanolamine]
dose required to achieve efficacy, equivalent (animal models): 150 mg/kg/day | dose required to achieve efficacy, in diet (animal models): 1500 ppm

GI50 (HepG2): < 5 µM
Compound: Cc1cc(Cl)cc(C(=O)Nc2nc3c(C4CCCO4)cc(C(F)(F)F)cc3s2)c1O (stereo not drawn) [Compound 71, 5-chloro-2-hydroxy-3-methyl-N-(4-(tetrahydrofuran-2-yl)-6-(trifluoromethyl)benzo[d]thiazol-2-yl)benzamide]
minimal effective concentration (C2C12 cells): < 5 µM

Compound: O=[N+]([O-])c1ccc(O)c([N+](=O)[O-])c1 [DNP, 2,4-dinitrophenol]
C10%TMRE/Cmin-OCR [6]: ≤ 3 | half-life [7]: days to weeks | toxicity in humans ([7]; human obesity treatment): exhibited high levels of toxicity and had a narrow therapeutic window

AUC at 24 h [1]: 30000 to 60000 ng·h/mL | GI50 (HepG2): < 5 µM
Compound: COCc1cc(C(F)(F)F)cc2sc(NC(=O)c3cc(Cl)cc(C)c3O)nc12 [Compound 68, 5-chloro-2-hydroxy-N-(4-(methoxymethyl)-6-(trifluoromethyl)benzo[d]thiazol-2-yl)-3-methylbenzamide]
minimal effective concentration (C2C12 cells): < 5 µM

AUC at 24 h [1]: 60000 to 120000 ng·h/mL
Compound: C[C@@H]1CN(Cc2cc(Cl)cc(C(=O)Nc3nc4ccc(C(F)(F)F)cc4s3)c2O)C[C@H](C)O1.Cl [Compound 11, 5-chloro-3-((cis-2,6-dimethylmorpholino)methyl)-2-hydroxy-N-(6-(trifluoromethyl)benzo[d]thiazol-2-yl)benzamide]
minimal effective concentration (C2C12 cells): < 5 µM | GI50 (C2C12): 5 to 20 µM | minimal effective dose [2]: 1 mg/kg
